Experimental data: patent US8158606B2, “β-L-2′-deoxynucleosides for the treatment of resistant HBV strains and combination therapies” (priority 2002, dated 2012)
Converted amounts (≈) assume the structure as drawn. “And” between values parts separate entries of the source, which are not always exact repeats. Equal values may be shown once. Where a name gives a salt, the structure may show the parent alone. Read-outs that look alike come from different tables or passages of the source.

Assays:
[1] = Log P study, octanol-1 / phosphate buffer; details: for P (B/A): octanol-1 (B) / 0.02 M phosphate buffer pH 7.2 (A), Study 1 and Study 2; for log P (octanol/water): octanol-1 / 0.02 M phosphate buffer pH 7.2
Description: To 1 mL of this solution, 1 mL of octanol-1 (B) saturated with 0.02 M phosphate buffer solution (A) was added. The resultant mixture was shaken and centrifuged; three samples from each phase was collected and analyzed by HPLC, as shown in Table 10.
The solution was then saturated with octanol-1 (B). To 1 mL of this solution, 1 mL of octanol-1 (B) saturated with 0.02 M phosphate buffer solution (A) was added. The resultant mixture was shaken and centrifuged; three samples from each phase was collected and analyzed by HPLC, as shown in Table 11.

[2] = Solubility study in water (HPLC calibration)
[3] = tested on: M552I mutant HBV, cell line I2; assay: Antiviral testing in stable HepG2 cell lines, EPA of intracellular nucleocapsids; type: cell-based, hepatitis B virus
Description: (§1) Recombinant DNA constructs corresponding to these lamivudine-resistant mutants were created by site directed mutagenesis. The test system comprised stable cell lines harboring each of the transfected mutant genomes, as well as a wild-type control HBV genome. The antiviral activity of LdT (telbivudine) and LdC, together with the control drugs lamivudine and PMEA, was determined against the mutant and wild-type HBV genomes in the respective test cell lines.
(§2) Endogenous Polymerase Assay (EPA) of cell lysate: Cells were grown in 12-well collagen plates to 100% confluency for 3-4 days and cytosolic lysates were prepared in 1 ml of 50 mM Tris-HCl pH 7.4, 150 mM NaCl, 5 mM MgCl2, 0.2% NP-40. EPAs were essentially performed as described (Seifer et al., 1998). […] The immobilized capsids were then washed, endogenous polymerase reactions were initiated in 50 ul reaction volume containing 50 mM Tris-HCl pH7.4, 75 mM NH4Cl, 1 mM EDTA, 20 mM MgCl2, 0.1 mM β-ME, 0.5% NP-40, 100 μM cold dGTP, TTP, dCTP, and 50 nM ^33P-dATP (Perkin Elmer Life Sciences Cat# NEG 612H), and incubated overnight at 37° C. Following digestion with 1 mg/ml of Proteinase K (Roche, Cat#1373196) for 1 h at 37° C., ^33P-labeled HBV DNA was liberated via phenol/chloroform extraction The nucleic acids were finally precipitated with equal volumes 5M NH4-acetate and 2.5 volumes 100% EtOH and separated on a 1% native agarose gel in Tris-borate buffer. Gels were either fixed with 7% TCA, then dried, or blotted onto positively charged nylon membrane (Pall Biodyne Plus Cat#60406) overnight at room temperature via capillary transfer in 0.4 N NaOH. Dried gels/membranes were exposed to a phosphoimager screen (Molecular Dynamics) overnight at room temperature, then scanned (Storm 860, Molecular Dynamics) and quantitated with ImageQuant (Molecular Dynamics) software.
(§3) 12-well Biocoat collagen I plates (Becton Dickinson Cat#35-4500) are seeded with cells at a density of 0.5-1×10^6 cells per well in 2 ml DMEM containing 5% FBS, 2 mM L-glutamine, 100 I.U. penicillin/100 μg/mL streptomycin, and 0.5 mg/mL G-418.
(§4) Drug dilutions are prepared freshly in 100% DMSO as 200× stocks. For each experiment, 4 aliquots of each drug dilution series are stored at −20° C. until used. Once cells reach confluency, drug treatment is initiated by adding 10 μL of drug dilution into 2 ml of fresh DMEM+5% FBS. […] The no-drug control well receives only 10 μl of DMSO. Cells are treated every other day with 2 mL of fresh drug/medium for a total of 8 days. Cell lysates are then collected on day 10 as described below:
(§5) Aspirate media and rinse cell monolayer carefully once with 1 mL of PBS.
(§6) Add 1 ml of lysis buffer (50 mM Tris-HCl pH 7.5/150 mM NaCl/5 mM MgCl2/0.2% NP-40). Store on ice for 30 min to 4 h.
(§7) Harvest lysed cells. Transfer to 1.5 ml microfuge tubes.
(§8) Clarify lysate by spinning for 5 min at RT and 14,000 rpm.
(§9) Transfer clarified lysate to fresh tubes. Snap-freeze on dry-ice and store at −80° C. until ready to continue with endogenous polymerase assays essentially as described above.
(§10) EC50's were generated from the phosphorimager data by curve fitting using Xlfit software.

[4] = tested on: wild-type HBV (ayw), cell line WT3/C1; assay: as above; type: cell-based, hepatitis B virus; details: WT (ayw); for EC50: cell line WT3/C1, mean ± SD of three to four experiments
Description: as §1, §2, §3, §4, §5, §6, §7, §8, §9, §10

[5] = tested on: L515M/M552I mutant HBV, cell line MI4; assay: as above; type: cell-based, hepatitis B virus
Description: as §1, §2, §3, §4, §5, §6, §7, §8, §9, §10

[6] = tested on: M552V mutant HBV, cell line V1/C9; assay: as above; type: cell-based, hepatitis B virus; details: for EC50: cell line V1/C9, mean ± SD of three to four experiments
Description: as §1, §2, §3, §4, §5, §6, §7, §8, §9, §10

[7] = tested on: L515M/M552V mutant HBV, cell line MV5/B3; assay: as above; type: cell-based, hepatitis B virus
Description: as §1, §2, §3, §4, §5, §6, §7, §8, §9, §10

[8] = tested on: cytosolic extracts of HepG2 cells; assay: Steady state phosphorylation kinetics in cytosolic extracts; type: biochemical, human; details: cytosolic extracts of HepG2 cells as enzyme source
[9] = Stability study in buffer at pH 7.4, 7.20, 4.5 and 1.2; type: physicochemical; details: pH 1.2, no decomposition products detected for up to 23 hours
[10] = type: physicochemical; details: octanol-1 (B) / MilliQ water pH 6.5 (A′), Study 1 and Study 2, listed as L-dC-5′-valinyl ester hydrochloride
Description: (§11) To 1 mL of this solution, 1 mL of octanol-1 (B) saturated with MilliQ water (A′) was added.
as §11

[11] = molecular target: hepatitis B virus deoxyribonucleic acid (DNA) polymerase (Hepatitis B virus genotype D subtype ayw, UniProt P03156); assay: biochemical
[12] = tested on: hepatitis B virus; details: clinical studies; cited from earlier work
[13] = listed as 3′-valinyl ester hydrochloride of β-L-dC
[14] = Hepatitis B virus, HepG2, M552I, cell line I2, mean ± SD of three to four experiments, read-out: EC50
[15] = Hepatitis B virus, HepG2, L515M/M552I, cell line MI4, mean ± SD of three to four experiments, read-out: EC50
[16] = Hepatitis B virus, HepG2, M552V
[17] = Hepatitis B virus, HepG2, L515M/M552V, cell line MV5/B3, mean ± SD of three to four experiments, read-out: EC50

hepatitis B virus deoxyribonucleic acid (DNA) polymerase, sequence (P03156 whole entry): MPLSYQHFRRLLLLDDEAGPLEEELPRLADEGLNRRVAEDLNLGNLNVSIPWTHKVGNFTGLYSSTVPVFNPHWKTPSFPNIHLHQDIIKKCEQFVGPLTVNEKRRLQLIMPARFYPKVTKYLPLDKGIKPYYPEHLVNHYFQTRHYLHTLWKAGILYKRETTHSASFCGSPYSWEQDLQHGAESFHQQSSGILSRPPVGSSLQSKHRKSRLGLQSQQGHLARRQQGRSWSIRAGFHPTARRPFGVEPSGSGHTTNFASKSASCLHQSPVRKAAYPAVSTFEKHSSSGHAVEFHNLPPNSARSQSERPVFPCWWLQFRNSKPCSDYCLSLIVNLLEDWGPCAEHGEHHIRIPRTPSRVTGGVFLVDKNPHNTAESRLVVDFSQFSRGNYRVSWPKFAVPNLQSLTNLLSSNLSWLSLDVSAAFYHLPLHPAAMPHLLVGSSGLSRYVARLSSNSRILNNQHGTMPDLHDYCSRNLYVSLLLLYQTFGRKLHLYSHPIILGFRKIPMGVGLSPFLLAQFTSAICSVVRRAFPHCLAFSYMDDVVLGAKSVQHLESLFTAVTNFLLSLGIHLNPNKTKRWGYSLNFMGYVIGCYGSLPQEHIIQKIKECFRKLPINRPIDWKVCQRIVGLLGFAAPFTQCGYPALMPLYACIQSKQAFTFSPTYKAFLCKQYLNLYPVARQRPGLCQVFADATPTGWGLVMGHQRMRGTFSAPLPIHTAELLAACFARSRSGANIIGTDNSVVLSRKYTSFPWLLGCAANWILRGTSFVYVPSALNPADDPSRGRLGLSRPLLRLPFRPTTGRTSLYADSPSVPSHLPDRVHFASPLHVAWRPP

Molecule: CC(C)[C@H](N)C(=O)O[C@@H]1C[C@@H](n2ccc(N)nc2=O)O[C@H]1CO.Cl [3′-val-L-dC, 3′-valinyl ester hydrochloride of β-L-dC]
- P (B/A) ([1]; listed as L-dC-3′-valine ester hydrochloride): 0.0296 and 0.0293
- log P (octanol/water) [1]: −1.53
- Solubility (g/L) [2]: >408 g/L
- Solubility (g/L) [2, 13]: > 408 g/L
- Solubility (mol/L) [2, 13]: greater than 1.023 mol/L

Molecule: Nc1ccn([C@@H]2C[C@@H](O)[C@H](CO)O2)c(=O)n1 [LdC-HCl]
- EC50 ([3]; M552I, cell line I2, mean ± SD of three to four experiments, read-out: EC50): ≥ 1000 µM
- EC50 [4]: 0.18 ± 0.09 µM
- EC50 ([5]; L515M/M552I, cell line MI4, mean ± SD of three to four experiments, read-out: EC50): ≥ 1000 µM
- EC50 ([6]; M552V): 0.36 ± 0.13 µM
- EC50 ([7]; L515M/M552V, cell line MV5/B3, mean ± SD of three to four experiments, read-out: EC50): 777 ± 99 µM

Molecule: Nc1ccn([C@@H]2CS[C@H](CO)O2)c(=O)n1 [lamivudine, (−)-enantiomer of BCH-189 (2′,3′-dideoxy-3′-thiacytidine), reference compound]
- EC50 ([3]; Hepatitis B virus, HepG2, M552I single mutant): > 1000 µM
- EC50 [3, 14]: ≥ 1000 µM
- EC50 ([4]; Hepatitis B virus, HepG2): 0.05 ± 0.03 µM
- EC50 ([5]; Hepatitis B virus, HepG2, L515M/M552I double mutant): > 1000 µM
- EC50 [5, 15]: ≥ 1000 µM
- EC50 [6, 16]: 0.96 ± 0.36 µM
- EC50 ([7]; Hepatitis B virus, HepG2, L515M/M552V double mutant): > 1000 µM
- EC50 [7, 17]: ≥ 1000 µM

Molecule: Nc1ccn([C@H]2C[C@H](O)[C@@H](CO)O2)c(=O)n1 [D-dC, D-Deoxycytidine]
- maximum initial velocity (Vmax) of phosphorylation [8]: 2.15 nmol/min/mg protein
- P (B/A) [1]: 0.039
- log P (octanol/water) [1]: −1.41
- Solubility (g/L) [2]: 272 g/L (≈ 1200 mM)
- Solubility (mol/L) [2]: 1.03 mol/L (≈ 234 mg/mL)
- Concentration (mol/L) of single samples ([2]; 1st-3rd HPLC sample of the saturated (D-dC) or most concentrated available solution): 1.07 mol/L and 1.08 mol/L and 0.96 mol/L

Molecule: CC(C)[C@H](N)C(=O)OC[C@@H]1O[C@H](n2ccc(N)nc2=O)C[C@H]1O [5′-val-L-dC, 5′-L-valine ester of 2′-deoxy-β-L-cytidine hydrochloride]
- stability in words [9]: fully stable
- P′ (B/A′) [10]: 1.54 × 10^−3 and 2.04 × 10^−3

Molecule: Cc1cn([C@H]2C[C@H](O)[C@@H](CO)O2)c(=O)[nH]c1=O [Thd, D-thymidine]
- maximum initial velocity (Vmax) of phosphorylation [8]: 1.26 nmol/min/mg protein

Molecule: O=c1ccn([C@@H]2C[C@@H](O)[C@H](COP(=O)(O)OP(=O)(O)OP(=O)(O)O)O2)c(=O)[nH]1 [L-dU-TP, β-L-2′-deoxyuridine 5′-triphosphate]
- IC50 [11]: 5.26 µM

Molecule: Interferon alpha-2b
- patients with no evidence of the hepatitis B virus in their blood over time [12]: 45%

Molecule: CC(=O)OC[C@@H]1O[C@H](n2ccc(N)nc2=O)C[C@H]1OC(C)=O [3′5′-diacetyl-L-dC, 3′,5′-Di-O-acetyl-2′-deoxy-β-L-cytidine]
- log P (octanol/water) [1]: −0.74

Molecule: Nc1ncnc2c1ncn2CCOCP(=O)(O)O [PMEA, 9-{2-(phosphonomethoxy)ethyl}adenine, reference compound]
- EC50 [3, 14]: 1.6 ± 1.12 µM
- activity against the mutant, in words ([3]; M552I single mutant): retained significant activity
- X Resist. (fold resistance) ([3]; M552I, EC50 mutant divided by EC50 wild-type): 4.6 ± 3.0
- EC50 ([4]; Hepatitis B virus, HepG2): 0.33 ± 0.17 µM
- X Resist. (fold resistance) ([4]; EC50 mutant divided by EC50 wild-type): 1
- EC50 [5, 15]: 1.49 ± 0.3 µM
- activity against the mutant, in words ([5]; L515M/M552I double mutant): retained significant activity
- X Resist. (fold resistance) ([5]; L515M/M552I, EC50 mutant divided by EC50 wild-type): 3.6 ± 1.1
- EC50 [6, 16]: 1.02 ± 0.22 µM
- activity against the mutant, in words ([6]; M552V single mutant): retained significant activity
- X Resist. (fold resistance) ([6]; M552V, EC50 mutant divided by EC50 wild-type): 3.8 ± 2.3
- EC50 [7, 17]: 0.62 ± 0.3 µM
- activity against the mutant, in words ([7]; L515M/M552V double mutant): retained significant activity
- X Resist. (fold resistance) ([7]; L515M/M552V, EC50 mutant divided by EC50 wild-type): 3.3 ± 2.9
